Data on 29 compounds can be found in PMC8303886, “Polyphenylglyoxamide-Based Amphiphilic Small Molecular Peptidomimetics as Antibacterial Agents with Anti-Biofilm Activity” (International Journal of Molecular Sciences, 2021).

Several values for one entry are separate records, joined by “and”; a condition that tells them apart may be missing. Identical values can stand only once. Like-named read-outs stand apart in the source and are kept apart here.

Test [1] has as its system S. aureus (SA38). To be noted: previously reported; cited from earlier work.
Test [2] deals with S. aureus (SA38). The test is described as follows: Minimum inhibitory concentration (MIC) assay against S. aureus. Type of test: cell-based, Staphylococcus aureus. To be noted: S. aureus SA38, read-out: MIC S. aureus.
Test [3] deals with MRC-5 normal human lung fibroblasts. As to the kind of experiment: MTT cytotoxicity assay. It is filed as cell-based. To be noted: 72 h drug incubation; for IC50: read-out: IC50 against MRC-5 normal human lung fibroblasts. Here is the method:
The IC50 values of the tested peptidomimetics were determined from a dose-response curve. […] The therapeutic indices for each tested peptidomimetic against Gram-positive S. aureus and Gram-negative E. coli were calculated by dividing the IC50 value against human cells by the corresponding MIC value (Table 2).
The toxicity of the peptidomimetics against normal human lung fibroblasts MRC-5 cells was measured, using an MTT (3-(4,5-dimethylthiazol-2-yl)-2,5-diphenyltetrazolium bromide) (Sigma Aldrich, St. Louis, MO, USA) colorimetric assay. The cells were cultured in minimal essential medium (MEM, Invitrogen) containing 10% foetal bovine serum (FBS). The cells were maintained at 37 °C in 5% CO2 as an adherent monolayer and was passaged upon reaching confluence by standard cell culture techniques. MRC-5 cells were seeded at 5000 cells/well in 96-well plates to ensure full confluence (quiescence) and left overnight to adhere to the plate wells. The adherent cells were treated with 1–500 μM of compounds by dissolving in DMSO and serially diluting with media. TY-01 was used as the positive control. The final concentration of DMSO was 0.5% (v/v). After the 72 h drug incubation, […] stock MTT solution (5 mg/mL) was added, and the cells were incubated for another 3.5–4 h. The MTT solution containing media was carefully aspirated without displacing the purple crystals from the bottom, and […] acid-isopropanol was added to all wells and mixed slowly by shaking with an orbital shaker to dissolve the dark blue crystals. […] The determination of IC50 values was performed using GraphPad Prism 7 (GraphPad, San Diego, CA, USA). Each experiment was performed in triplicate and was repeated in three independent experiments.
In general terms: Tetrazolium dyes change colour on reduction, which living cells bring about.

Regarding `CCCCCCCCS(=O)(=O)Nc1ccc(-c2ccccc2)cc1C(=O)C(=O)NCCCN(C)C` [Compound 10c], the “MIC S. aureus” value in the test on S. aureus (SA38) [1] was 24 μM and 12 μg/mL. One may read the MIC as the least concentration at which growth counts as inhibited. As for `CCCCCCCCCCCCCCCCS(=O)(=O)Nc1ccc(-c2ccccc2)cc1C(=O)C(=O)NCCC[N+](C)(C)C.[I-]` [Compound 18c, 3-(2-(4-(Hexadecylsulfonamido)-[1,1′-biphenyl]-3-yl)-2-oxoacetamido)-N,N,N-trimethylpropan-1-aminium iodide], the MIC in the test with S. aureus (SA38) [2] (Staphylococcus aureus) is 250 µM and 189 µg/mL. A word on the IC50: it is the midpoint of a concentration-inhibition curve. For the compound `CCCCCCCCS(=O)(=O)Nc1ccc(-c2ccc(-c3ccccc3)cc2)cc1C(=O)C(=O)NCCCN(C)C.Cl` [Compound 13d, N,N-Dimethyl-3-(2-(4-(octylsulfonamido)-[1,1′:4′,1″-terphenyl]-3-yl)-2-oxoacetamido)propan-1-aminium chloride], in the test with S. aureus (SA38) [2] (Staphylococcus aureus), the MIC is 16 µM and 9.8 µg/mL. Besides, in test [3], the “IC50 against MRC-5 normal human lung fibroblasts” value turned out to be 2.31 mg/L and the IC50 came out at 3.76 µM. Moreover, in test [3] (Homo sapiens, MRC5, 72 h), the IC50 is ~4 µM and ~2 µg/mL. `CCCCCCCCCCCCCCCCS(=O)(=O)Nc1ccccc1C(=O)C(=O)NCCCN(C)C` [Compound 12a, N-(3-(Dimethylamino)propyl)-2-(2-(hexadecylsulfonamido)phenyl)-2-oxoacetamide]: in the test on S. aureus (SA38) [2] (Staphylococcus aureus), the minimum inhibitory concentration (MIC) is 63 µM and 34 µg/mL.

With `CCCCCCCCCCCCCCCCS(=O)(=O)Nc1ccc(-c2ccccc2)cc1C(=O)C(=O)NCCCN(C)C.Cl` [Compound 15c, 3-(2-(4-(Hexadecylsulfonamido)-[1,1′-biphenyl]-3-yl)-2-oxoacetamido)-N,N-dimethylpropan-1-aminium chloride], the values for the minimal inhibitory concentration (MIC) with S. aureus (SA38) [2] and with S. aureus (SA38) [2] (Staphylococcus aureus) were > 250 µM and > 163 mg/L, respectively. For `CCCCCCCCCCCCS(=O)(=O)Nc1ccccc1C(=O)C(=O)NCCC[N+](C)(C)C.[I-]` [Compound 17a, 3-(2-(2-(Dodecylsulfonamido)phenyl)-2-oxoacetamido)-N,N,N-trimethylpropan-1-aminium iodide], the MIC with S. aureus (SA38) [2] (Staphylococcus aureus) was 16 µM and 10 µg/mL.

Take `CCCCCCCCS(=O)(=O)Nc1ccc(-c2cccc(-c3ccccc3)c2)cc1C(=O)C(=O)NCCCN(C)C.Cl` [Compound 22, N,N-Dimethyl-3-(2-(4-(octylsulfonamido)-[1,1′:3′,1″-terphenyl]-3-yl)-2-oxoacetamido)propan-1-aminium chloride]: the values for the MIC in the test with S. aureus (SA38) [2] and in the test on S. aureus (SA38) [2] (Staphylococcus aureus) were 16 µM and 9.8 mg/L, respectively. The 50% inhibitory concentration (IC50) in test [3] (Homo sapiens, MRC5, 72 h) was 3.46 µM and 2.13 µg/mL.

`CCCCCCCCCCCCS(=O)(=O)Nc1ccccc1C(=O)C(=O)NCCCN(C)C` [Compound 11a, N-(3-(Dimethylamino)propyl)-2-(2-(dodecylsulfonamido)phenyl)-2-oxoacetamide]: the MIC with S. aureus (SA38) [2] was 32 µM; in the test with S. aureus (SA38) [2] (Staphylococcus aureus), 15 mg/L.

Consider `CCCCCCCCCCCCS(=O)(=O)Nc1ccc(Br)cc1C(=O)C(=O)NCCCN(C)C.Cl` [Compound 14b, 3-(2-(5-Bromo-2-(dodecylsulfonamido)phenyl)-2-oxoacetamido)-N,N-dimethylpropan-1-aminium chloride], for which the minimum inhibitory concentration (MIC) in the test with S. aureus (SA38) [2] (Staphylococcus aureus) was 16 µM and 9.6 µg/mL. On the same count and under the same terms, the result for `CCCCCCCCCCCCS(=O)(=O)Nc1ccc(-c2ccccc2)cc1C(=O)C(=O)NCCCN(C)C` [Compound 11c, N-(3-(Dimethylamino)propyl)-2-(4-(dodecylsulfonamido)-[1,1′-biphenyl]-3-yl)-2-oxoacetamide] reads 16 µM and 8.9 µg/mL. With `CCCCCCCCCCCCS(=O)(=O)Nc1ccc(-c2ccccc2)cc1C(=O)C(=O)NCCCN(C)C.Cl` [Compound 14c, 3-(2-(4-(Dodecylsulfonamido)-[1,1′-biphenyl]-3-yl)-2-oxoacetamido)-N,N-dimethylpropan-1-aminium chloride], the MIC stood at 16 µM in the test with S. aureus (SA38) [2] and 9.5 mg/L in the test with S. aureus (SA38) [2] (Staphylococcus aureus). For `CCCCCCCCCCCCS(=O)(=O)Nc1ccc(Br)cc1C(=O)C(=O)NCCCN(C)C` [Compound 11b, 2-(5-Bromo-2-(dodecylsulfonamido)phenyl)-N-(3-(dimethylamino)propyl)-2-oxoacetamide], in that order: 32 µM and 18 mg/L. As for `CCCCCCCCS(=O)(=O)Nc1ccccc1C(=O)C(=O)NCCCN(C)C` [Compound 10a], the “MIC S. aureus” value with S. aureus (SA38) [1] was 250 μM and 106 μg/mL. As for `CCCCCCCCS(=O)(=O)Nc1ccc(-c2ccccc2)cc1C(=O)C(=O)NCCCN(C)C` [Compound 13c], the “MIC S. aureus” value in the test on S. aureus (SA38) [1] was 16 μM and 8.6 μg/mL. In the case of `CCCCCCCCS(=O)(=O)Nc1ccc(Br)cc1C(=O)C(=O)NCCCN(C)C` [Compound 10b], the “MIC S. aureus” value with S. aureus (SA38) [1] was 94 μM and 47 μg/mL. In the case of `CCCCCCCCCCCCS(=O)(=O)Nc1ccc(-c2ccc(-c3ccccc3)cc2)cc1C(=O)C(=O)NCCCN(C)C.Cl` [Compound 14d, 3-(2-(4-(Dodecylsulfonamido)-[1,1′:4′,1″-terphenyl]-3-yl)-2-oxoacetamido)-N,N-dimethylpropan-1-aminium chloride], the figures for the minimum inhibitory concentration (MIC) with S. aureus (SA38) [2] and with S. aureus (SA38) [2] (Staphylococcus aureus) were 125 µM and 84 mg/L, respectively. For `CCCCCCCCCCCCS(=O)(=O)Nc1ccc(-c2ccc(-c3ccccc3)cc2)cc1C(=O)C(=O)NCCCN(C)C` [Compound 11d, N-(3-(Dimethylamino)propyl)-2-(4-(dodecylsulfonamido)-[1,1′:4′,1″-terphenyl]-3-yl)-2-oxoacetamide], the MIC with S. aureus (SA38) [2] (Staphylococcus aureus) is 250 µM and 158 µg/mL. On to `CCCCCCCCCCCCCCCCS(=O)(=O)Nc1ccccc1C(=O)C(=O)NCCCNC(=N)N.Cl` [Compound 35a, N-(3-Guanidinopropyl)-2-(2-(hexadecylsulfonamido)phenyl)-2-oxoacetamide hydrochloride], for which the MIC in the test on S. aureus (SA38) [2] (Staphylococcus aureus) is 250 µM and 147 µg/mL. On the same count and under the same terms, the figure for `CCCCCCCCCCCCS(=O)(=O)Nc1ccc(-c2ccc(-c3ccccc3)cc2)cc1C(=O)C(=O)NCCC[N+](C)(C)C.[I-]` [Compound 17d, 3-(2-(4-(Dodecylsulfonamido)-[1,1′:4′,1″-terphenyl]-3-yl)-2-oxoacetamido)-N,N,N-trimethylpropan-1-aminium iodide] is 63 µM and 48 µg/mL; for `CCCCCCCCCCCCCCCCS(=O)(=O)Nc1ccc(Br)cc1C(=O)C(=O)NCCCN(C)C` [Compound 12b, 2-(5-Bromo-2-(hexadecylsulfonamido)phenyl)-N-(3-(dimethylamino)propyl)-2-oxoacetamide] it is 250 µM and 154 µg/mL. Same read-out and setting: the figure for `CCCCCCCCS(=O)(=O)Nc1ccc(-c2cccc(-c3ccccc3)c2)cc1C(=O)C(=O)NCCCN(C)C` [Compound 21, N-(3-(Dimethylamino)propyl)-2-(4-(octylsulfonamido)-[1,1′:3′,1″-terphenyl]-3-yl)-2-oxoacetamide] is 16 µM and 9.2 µg/mL. As for `CCCCCCCCS(=O)(=O)Nc1ccc(Br)cc1C(=O)C(=O)NCCCN(C)C` [Compound 13b], in the test with S. aureus (SA38) [1], the “MIC S. aureus” value was 63 μM and 34 μg/mL.

On to `CCCCCCCCS(=O)(=O)Nc1ccccc1C(=O)C(=O)NCCCNC(=N)N` [Compound 33a], for which the “MIC S. aureus” value in the test on S. aureus (SA38) [1] is 47 μM and 22 μg/mL.

Take `CCCCCCCCS(=O)(=O)Nc1ccc(-c2cccc(-c3ccccc3)c2)cc1C(=O)C(=O)NCCC[N+](C)(C)C.[I-]` [Compound 23, N,N,N-Trimethyl-3-(2-(4-(octylsulfonamido)-[1,1′:3′,1″-terphenyl]-3-yl)-2-oxoacetamido)propan-1-aminium iodide]: the minimal inhibitory concentration (MIC) with S. aureus (SA38) [2] (Staphylococcus aureus) is 8 µM and 5.8 µg/mL. For the same compound, in test [3] (Homo sapiens, MRC5, 72 h), the 50% inhibitory concentration (IC50) was 15.4 µM and 11.1 µg/mL.

On to `CCCCCCCCCCCCCCCCS(=O)(=O)Nc1ccc(Br)cc1C(=O)C(=O)NCCCN(C)C.Cl` [Compound 15b, 3-(2-(5-Bromo-2-(hexadecylsulfonamido)phenyl)-2-oxoacetamido)-N,N-dimethylpropan-1-aminium chloride], for which the minimum inhibitory concentration (MIC) in the test on S. aureus (SA38) [2] came to 250 µM; with S. aureus (SA38) [2] (Staphylococcus aureus), 163 mg/L. For the compound `CCCCCCCCCCCCS(=O)(=O)Nc1ccccc1C(=O)C(=O)NCCCN(C)C.Cl` [Compound 14a, 3-(2-(2-(Dodecylsulfonamido)phenyl)-2-oxoacetamido)-N,N-dimethylpropan-1-aminium chloride], the MIC with S. aureus (SA38) [2] (Staphylococcus aureus) is 16 µM and 8.3 µg/mL. The same measure, in the same setting: the result for `CCCCCCCCCCCCCCCCS(=O)(=O)Nc1ccc(Br)cc1C(=O)C(=O)NCCC[N+](C)(C)C.[I-]` [Compound 18b, 3-(2-(5-Bromo-2-(hexadecylsulfonamido)phenyl)-2-oxoacetamido)-N,N,N-trimethylpropan-1-aminium iodide] reads 125 µM and 95 µg/mL. In the case of `CCCCCCCCCCCCCCCCS(=O)(=O)Nc1ccccc1C(=O)C(=O)NCCCN(C)C.Cl` [Compound 15a, 3-(2-(2-(Hexadecylsulfonamido)phenyl)-2-oxoacetamido)-N,N-dimethylpropan-1-aminium chloride], the MIC with S. aureus (SA38) [2] came to 63 µM; in the test with S. aureus (SA38) [2] (Staphylococcus aureus), 36 mg/L.

For `CCCCCCCCS(=O)(=O)Nc1ccc(-c2ccc(-c3ccccc3)cc2)cc1C(=O)C(=O)NCCCN(C)C` [Compound 10d, N-(3-(Dimethylamino)propyl)-2-(4-(octylsulfonamido)-[1,1′:4′,1″-terphenyl]-3-yl)-2-oxoacetamide], the results for the minimal inhibitory concentration (MIC) in the test on S. aureus (SA38) [2] and in the test on S. aureus (SA38) [2] (Staphylococcus aureus) were 8 µM and 4.6 mg/L, respectively. In addition, the half-inhibitory concentration (IC50) in test [3] worked out at 3.48 µM; in test [3] (Homo sapiens, MRC5, 72 h) it was 2.01 mg/L.
